As a reminder, the IC50 is the point on the concentration scale where inhibition reaches its midpoint. Read a low IC50 as greater potency.

Assay [1] deals with 5-lipoxygenase. Briefly: 5-lipoxygenase inhibition in rat blood after oral administration (ex vivo iLTB4-formation). To be noted: male Wistar rats, 21.5 mg/kg oral, one hour after administration, A 23 187 15 μg/ml. How it is done:
The bioavailability of the compounds of formula I as 5-lipoxygenase inhibitors was characterized by means of an ex vivo biochemical assessment method described by Tateson et al. in Brit. J. Pharmacol. 94, 528 (1988). A compound of formula I was orally administered to male rats (Wistar strain) in a dose of 21.5 mg/kg. One hour after administration the rats after lethal CO2 -narcosis were bled by heart puncture with added heparin as an anticoagulant. Aliquots of the whole blood were incubated at 37° C. for 30 minutes in a water bath with calcium ionophore A 23 187 at an end concentration of 15 μg/ml. At the end of the incubation the samples were centrifuged, and the concentration of immunoreactive LTB4 (iLTB4) in aliquots of […] percent inhibition of ex vivo iLTB4 -formation in whole blood of rats treated with a compound according to the invention, rats orally treated with an appropriate vehicle solution were included in all experiments, and aliquots of their blood were run in parallel and were processed in the same way as described. The average iLTB4 -content of the plasma of the vehicle treated rats served as the 100% value. The activity in percent of the ex vivo iLTB4 -formation after oral administration of a compound according to the invention was calculated by dividing the average value of the iLTB4 -content in ng iLTB4 /ml of the group treated with a compound according to the invention by the average value of the iLTB4 -contents in ng iLTB4 /ml of the vehicle treated group and subsequent multiplication by the factor 100. The respective inhibition in percent was calculated by subtracting the activity in percent from 100.

A further assay deals with guinea pigs. Briefly: Allergen-induced bronchoconstriction in guinea pigs (Konzett-Roessler). Format: in vivo, guinea pig. The conditions noted are these: Cavia porcellus, po, 1 h, 60 minutes before ovalbumin, read-out: ED40-Value, inhibition of the bronchoconstriction elicited by ovalbumin. How it is done:
The antiasthmatic effect of compounds according to the invention was tested in anesthetized and ventilated guinea pigs. To induce an asthmatic reaction, the animals were passively sensitized by a single intraperitoneal injection of anti-ovalbumin serum. After 48 hours an asthmatic reaction was elicited by intravenous challenge with 0.2 mg/kg of ovalbumin. The immediately resulting bronchoconstriction was measured as an increase in intratracheal pressure. Effects caused by histamine, serotonin and sympathic counterreaction were eliminated by intravenous pretreatment with 2.15 mg/kg of mepyramine, 46.4 μg/kg of propranolol, 4.64 mg/kg of atropine, and 1 mg/kg of methysergide, all administered 5 minutes before challenge. Compounds according to the invention were orally administered 60 minutes before the administration of ovalbumin. The following ED40-values for the inhibition of the bronchoconstriction elicited by ovalbumin, i.e. the effective doses causing a 40% average inhibition of the bronchoconstriction, were determined: […]

Assay [2] concerns the target T1, 5-lipoxygenase (Rattus norvegicus, UniProt P12527).
T1 construct: endogenous in cells; host or cells: RBL-1 cells (rat basophilic leukemia), intact
T1 sequence (P12527 1-673): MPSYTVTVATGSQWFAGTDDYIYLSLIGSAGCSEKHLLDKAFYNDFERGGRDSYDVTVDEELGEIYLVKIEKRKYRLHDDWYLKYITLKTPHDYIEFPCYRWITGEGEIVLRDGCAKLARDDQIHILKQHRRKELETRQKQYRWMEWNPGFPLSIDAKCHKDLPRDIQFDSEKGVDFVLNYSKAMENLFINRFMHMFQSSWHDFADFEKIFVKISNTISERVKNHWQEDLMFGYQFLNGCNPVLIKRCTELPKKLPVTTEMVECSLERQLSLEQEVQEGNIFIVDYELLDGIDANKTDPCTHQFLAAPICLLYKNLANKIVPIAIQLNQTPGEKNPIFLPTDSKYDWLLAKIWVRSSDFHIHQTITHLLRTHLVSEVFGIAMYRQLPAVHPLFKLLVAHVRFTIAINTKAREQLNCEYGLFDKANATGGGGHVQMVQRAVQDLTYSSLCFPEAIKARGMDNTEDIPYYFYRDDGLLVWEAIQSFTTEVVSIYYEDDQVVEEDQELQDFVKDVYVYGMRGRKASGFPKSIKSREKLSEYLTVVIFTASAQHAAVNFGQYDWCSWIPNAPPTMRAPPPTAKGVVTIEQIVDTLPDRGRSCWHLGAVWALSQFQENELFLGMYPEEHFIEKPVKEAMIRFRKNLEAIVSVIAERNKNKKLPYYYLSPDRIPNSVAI
Briefly: Inhibition of 5-lipoxygenase in RBL-1-cells. Format: cell-based. The conditions noted are these: 20 μM [14C]-arachidonic acid, 20 μM A 23 187. How it is done:
To determine the inhibition of 5-lipoxygenase rat basophilic leukemia cells (RBL-1-cells) were cultured in vitro, harvested by centrifugation, washed with 50 mM potassium phosphate buffer of pH 7.4, and then suspended in this buffer at 1×10^7 cells/mi. To 1 ml each of this suspension there was added indomethacin (10 μM) and calcium chloride (2 mM), and then the mixture was incubated in the absence or presence of a compound according to the invention in a concentration range of from 0.1 μM to 100 μM for 3 minutes and thereafter with 20 μM of [^14 C]-arachidonic acid and 20 μM of the calcium ionophore A 23 187 for 10 minutes. The reaction was stopped by adding 20 μl of glacial acetic acid, and then the mixture was extracted with ethyl acetate to isolate the metabolites of arachidonic acid formed by the enzymatic action of 5-lipoxygenase. These were separated by thin layer chromatography using a solvent mixture known to be suitable for lipoxygenase products [c.f. Jakschik et al., Biochem. Biophys. Res. Commun. 102, 624 (1981)].
The distribution of the radioactivity among the various metabolites of arachidonic acid was measured using a TLC Linear Analyzer. By correlating the percentages of the amount of the products formed under the action of 5lipoxygenase (5-HETE, isomers of LTB4) in the absence as well as in the presence of different concentrations of compounds according to the invention, the IC50 -values, i.e. the concentrations which cause 50% inhibition of 5-lipoxygenase were determined graphically from semilogarithmic diagrams.

Regarding `NC(=O)N(O)Cc1ccc(Oc2ccc(-n3ccnc3)cc2)cc1` [Example 1, N-hydroxy-N-[4-[4-(1H-imidazol-1-yl)phenoxy]phenylmethyl]urea], in the assay with 5-lipoxygenase [1] (21.5 mg/kg), the “Inhibition of ex vivo iLTB4-formation in whole blood” value is listed as 89%. In addition, the ED40 in the assay with guinea pigs was determined as 9.3 mg/kg. At 5-lipoxygenase [2], the IC50 worked out at 2 µM.

On to `CC(=O)N(O)Cc1ccc(Oc2ccc(-n3ccnc3)cc2)cc1` [Example 3, N-hydroxy-N-[4-[4-(1H-imidazol-1-yl)phenoxy]phenylmethyl]acetamide], for which the “Inhibition of ex vivo iLTB4-formation in whole blood” value with 5-lipoxygenase [1] stood at 91%. Further, the ED40 with guinea pigs stood at 15.5 mg/kg. Also, the concentration for half-maximal inhibition (IC50) at 5-lipoxygenase [2] was found to be 5 µM.

Source of the values: patent US5356921A, “Imidazolylphenol compounds, pharmaceutical compositions containing them, and processes for preparing such compounds and compositions” (Gruenenthal GmbH, priority 1992, dated 1994).
